These results are taken from patent US20220153741A1, “HETEROCYCLIC COMPOUNDS AS INHIBITORS OF KRAS G12C” (Guangdong Newopp Biopharmaceuticals Co., Ltd., priority 2019, published 2022).

A value given as a limit tells only on which side of the number the result lay.

Assay [1] concerns NCI-H358 (H358, KRAS G12C) cancer cell line. In words: 3D proliferation assay, NCI-H358 (CellTiter-Glo). Format: cell-based. To be noted: 96-well spheroid plate, 4 days. On the procedure:
(§1) 3D proliferation assay: NCI-H358 (H358, KRAS G12C) and LS513 (KRAS G12D) cancer cell lines were obtained from ATCC (American Type Culture Collection, VA). Cells were plated in 96-well spheroid plate (CORNING INC, NY)) in RPMI-1640 with 10% FBS. Compounds (11-point dilutions) and DMSO were added to the wells and incubated with cells for 4 days at 37° C. Cell viability was then determined by CellTiter-Glo (Promega, WI). IC50 values of compounds were determined as the concentration of 50% inhibition of cell viability compared to DMSO treated cells (A: IC50<0.1 μM; B: IC50 between 0.1 μM and 1 μM; C: IC50 between 1 μM and 10 μM; D: >10 μM; ND: not determined).

The test system of assay [2] is LS513 (KRAS G12D) cancer cell line. In words: 3D proliferation assay, LS513 (CellTiter-Glo). In kind it is cell-based. The note with it: 96-well spheroid plate, 4 days. On the procedure: as §1
On the technique in general: Cellular ATP, detected with luciferase, serves as a proxy for viable cell number.

Turning to `C=C(F)C(=O)N1C[C@H](C)N(c2nc(=O)n3c4nc(c(F)cc24)-c2c(F)cccc2NCCCc2ccnc(C(C)C)c2-3)C[C@H]1C` (single isomer, unassigned) [Example 6A], the IC50 (in general, the point on the concentration scale where inhibition reaches its midpoint) in assay [1] is greater than 10000 nM.
Regarding `C=C(F)C(=O)N1C[C@H](C)N(c2nc(=O)n3c4nc(c(F)cc24)-c2c(F)cccc2NCCCc2ccnc(C(C)C)c2-3)C[C@H]1C` (single isomer, unassigned) [Example 6B], the IC50 in assay [1] was 100 to 1000 nM; in assay [2] (Homo sapiens, LS-513, 96 h), greater than 10 µM.
Turning to `C=CC(=O)N1C[C@H](C)N(c2nc(=O)n3c4nc(c(F)cc24)-c2c(F)cccc2NCCCNc2cccc(C(C)C)c2-3)C[C@H]1C` (single isomer, unassigned) [Example 23A], the IC50 was less than 100 nM in assay [1] (Homo sapiens, NCI-H358, 96 h) and greater than 10 µM in assay [2].
Regarding `C=CC(=O)N1C[C@H](C)N(c2nc(=O)n3c4nc(c(F)cc24)-c2c(F)cccc2NCCCNc2cccc(C(C)C)c2-3)C[C@H]1C` (single isomer, unassigned) [Example 23B], the IC50 in assay [1] fell in the range of 100 to 1000 nM; in assay [2] it was 1 to 10 µM.
On to `C=CC(=O)N1CCN(c2nc(=O)n3c4nc(c(F)cc24)-c2c(F)cccc2NCCCc2ccnc(C(C)C)c2-3)[C@@H](C)C1` [Example 2, (S)-2^4-(4-acryloyl-2-methylpiperazin-1-yl)-2^6,3^6-difluoro-1^2-isopropyl-2^1,2^2-dihydro-4-aza-2(1,7)-pyrido[2,3-d]pyrimidina-1(3,4)-pyridina-3(1,2)-benzenacycloheptaphan-2^2-one], for which the half-maximal inhibitory concentration (IC50) in assay [1] (Homo sapiens, NCI-H358, 96 h) was less than 100 nM; in assay [2] (Homo sapiens, LS-513, 96 h), greater than 10 µM.
Regarding `C=CC(=O)N1CCN(c2nc(=O)n3c4nc(c(F)cc24)-c2c(F)cccc2NC(=O)CCc2ccnc(C(C)C)c2-3)C[C@@H]1CC#N` [Example 3, (S)-2-(1-acryloyl-4-(2^6,3^6-difluoro-1^2-isopropyl-2^2,5-dioxo-2^1,2^2-dihydro-4-aza-2(1,7)-pyrido[2,3-d]pyrimidina-1(3,4)-pyridina-3(1,2)-benzenacycloheptaphane-2^4-yl)piperazin-2-yl)acetonitrile], the IC50 in assay [1] (Homo sapiens, NCI-H358, 96 h) was 1000 to 10000 nM.
For the compound `C=CC(=O)N1CCN(c2nc(=O)n3c4nc(c(F)cc24)-c2c(F)cccc2NC(=O)NCCc2ccnc(C(C)C)c2-3)[C@@H](C)C1` [Example 5, (S)-2^4-(4-acryloyl-2-methylpiperazin-1-yl)-2^6,3^6-difluoro-1^2-isopropyl-2^1,2^2-dihydro-4,6-diaza-2(1,7)-pyrido[2,3-d]pyrimidina-1(3,4)-pyridina-3(1,2)-benzenacyclooctaphane-2^2,5-dione], in assay [1] (Homo sapiens, NCI-H358, 96 h), the 50% inhibitory concentration (IC50) lay within 100 to 1000 nM.
Regarding `C=C(F)C(=O)N1CCN(c2nc(=O)n3c4nc(c(F)cc24)-c2c(F)cccc2NCCCc2ccnc(C(C)C)c2-3)[C@@H](C)C1` [Example 11, (S)-2^6,3^6-difluoro-2^4-(4-(2-fluoroacryloyl)-2-methylpiperazin-1-yl)-1^2-isopropyl-2^1,2^2-dihydro-4-aza-2(1,7)-pyrido[2,3-d]pyrimidina-1(3,4)-pyridina-3(1,2)-benzenacycloheptaphan-2^2-one], the IC50 in assay [1] (Homo sapiens, NCI-H358, 96 h) is 100 to 1000 nM; in assay [2] (Homo sapiens, LS-513, 96 h) it was greater than 10 µM.
For `C=CC(=O)N1CCN(c2nc(=O)n3c4nc(c(F)cc24)-c2c(F)cccc2N(C(C)=O)CCCc2ccnc(C(C)C)c2-3)[C@@H](C)C1` [Example 12, (S)-4-acetyl-2^4-(4-acryloyl-2-methylpiperazin-1-yl)-2^6,3^6-difluoro-1^2-isopropyl-2^1,2^2-dihydro-4-aza-2(1,7)-pyrido[2,3-d]pyrimidina-1(3,4)-pyridina-3(1,2)-benzenacycloheptaphan-2^2-one], in that order: 100 to 1000 nM and greater than 10 µM.
Consider `C=CC(=O)N1CCN(c2nc(=O)n3c4nc(c(F)cc24)-c2c(F)cccc2N(C(=O)N(C)C)CCCc2ccnc(C(C)C)c2-3)[C@@H](C)C1` [Example 13, (S)-2^4-(4-acryloyl-2-methylpiperazin-1-yl)-2^6,3^6-difluoro-1^2-isopropyl-N,N-dimethyl-2^2-oxo-2^1,2^2-dihydro-4-aza-2(1,7)-pyrido[2,3-d]pyrimidina-1(3,4)-pyridina-3(1,2)-benzenacycloheptaphane-4-carboxamide], for which, in assay [1] (Homo sapiens, NCI-H358, 96 h), the IC50 lay in the range of 100 to 1000 nM.
Same read-out and setting: the value for `C=CC(=O)N1CCN(c2nc(=O)n3c4nc(c(F)cc24)-c2c(F)cccc2N(C(=O)c2cccnc2)CCCc2ccnc(C(C)C)c2-3)[C@@H](C)C1` [Example 14, (S)-2^4-(4-acryloyl-2-methylpiperazin-1-yl)-2^6,3^6-difluoro-1^2-isopropyl-4-nicotinoyl-2^1,2^2-dihydro-4-aza-2(1,7)-pyrido[2,3-d]pyrimidina-1(3,4)-pyridina-3(1,2)-benzenacycloheptaphan-2^2-one] was 1000 to 10000 nM; that for `C=CC(=O)N1CCN(c2nc(=O)n3c4nc(c(F)cc24)-c2c(F)cccc2N(C)C(=O)NCCc2ccnc(C(C)C)c2-3)[C@@H](C)C1` [Example 16, (S)-2^4-(4-acryloyl-2-methylpiperazin-1-yl)-2^6,3^6-difluoro-1^2-isopropyl-4-methyl-2^1,2^2-dihydro-4,6-diaza-2(1,7)-pyrido[2,3-d]pyrimidina-1(3,4)-pyridina-3(1,2)-benzenacyclooctaphane-2^2,5-dione] was 1000 to 10000 nM.
On to `C=CC(=O)N1CCN(c2nc(=O)n3c4nc(c(F)cc24)-c2c(F)cccc2NC(=O)CCc2cccc(C(C)C)c2-3)[C@@H](C)C1` [Example 18, (S)-2^4-(4-acryloyl-2-methylpiperazin-1-yl)-2^6,3^6-difluoro-1^6-isopropyl-2^1,2^2-dihydro-4-aza-2(1,7)-pyrido[2,3-d]pyrimidina-1,3(1,2)-dibenzenacycloheptaphane-2^2,5-dione], for which the IC50 in assay [1] (Homo sapiens, NCI-H358, 96 h) was 100 to 1000 nM; in assay [2] (Homo sapiens, LS-513, 96 h), greater than 10 µM.
For the compound `C=CC(=O)N1CCN(c2nc(=O)n3c4nc(c(F)cc24)-c2c(F)cccc2NC(=O)CCNc2cccc(C(C)C)c2-3)[C@@H](C)C1` [Example 21, (S)-2^4-(4-acryloyl-2-methylpiperazin-1-yl)-2^6,3^6-difluoro-1^6-isopropyl-2^1,2^2-dihydro-4,8-diaza-2(1,7)-pyrido[2,3-d]pyrimidina-1,3(1,2)-dibenzenacyclooctaphane-2^2,5-dione], the IC50 is less than 100 nM in assay [1] (Homo sapiens, NCI-H358, 96 h) and greater than 10 µM in assay [2] (Homo sapiens, LS-513, 96 h).
Take `C=CC(=O)N1C[C@H](C)N(c2nc(=O)n3c4nc(c(F)cc24)-c2c(F)cccc2NC(=O)CCNc2cccc(C(C)C)c2-3)C[C@H]1C` [Example 24A, 2^4-((2S,5R)-4-acryloyl-2,5-dimethylpiperazin-1-yl)-2^6,3^6-difluoro-1^6-isopropyl-2^1,2^2-dihydro-4,8-diaza-2(1,7)-pyrido[2,3-d]pyrimidina-1,3(1,2)-dibenzenacyclooctaphane-2^2,5-dione]: the half-maximal inhibitory concentration (IC50) in assay [1] (Homo sapiens, NCI-H358, 96 h) is less than 100 nM; in assay [2] (Homo sapiens, LS-513, 96 h) it was greater than 10 µM.
`C=CC(=O)N1CCN(c2nc(=O)n3c4nc(c(F)cc24)-c2c(F)cccc2NC(=O)CNc2cccc(C(C)C)c2-3)[C@@H](C)C1` [Example 25, (S)-2^4-(4-acryloyl-2-methylpiperazin-1-yl)-2^6,3^6-difluoro-1^6-isopropyl-2^1,2^2-dihydro-4,7-diaza-2(1,7)-pyrido[2,3-d]pyrimidina-1,3(1,2)-dibenzenacycloheptaphane-2^2,5-dione]: the IC50 is less than 100 nM in assay [1] (Homo sapiens, NCI-H358, 96 h) and greater than 10 µM in assay [2] (Homo sapiens, LS-513, 96 h).
For the compound `C=CC(=O)N1C[C@H](C)N(c2nc(=O)n3c4nc(c(F)cc24)-c2c(F)cccc2NC(=O)CNc2cccc(C(C)C)c2-3)C[C@H]1C` [Example 26, 2^4-((2S,5R)-4-acryloyl-2,5-dimethylpiperazin-1-yl)-2^6,3^6-difluoro-1^6-isopropyl-2^1,2^2-dihydro-4,7-diaza-2(1,7)-pyrido[2,3-d]pyrimidina-1,3(1,2)-dibenzenacycloheptaphane-2^2,5-dione], the IC50 in assay [1] (Homo sapiens, NCI-H358, 96 h) was less than 100 nM; in assay [2] (Homo sapiens, LS-513, 96 h) it was greater than 10 µM.
For the compound `C=CC(=O)N1CCN(c2nc(=O)n3c4nc(c(F)cc24)-c2c(F)cccc2NC(=O)CCN(C)c2cccc(C(C)C)c2-3)C(C)C1` [Example 29, (S)-2^4-(4-acryloyl-2-methylpiperazin-1-yl)-2^6,3^6-difluoro-1^6-isopropyl-8-methyl-2^1,2^2-dihydro-4,8-diaza-2(1,7)-pyrido[2,3-d]pyrimidina-1,3(1,2)-dibenzenacyclooctaphane-2^2,5-dione], the IC50 in assay [1] is less than 100 nM; in assay [2] it was greater than 10 µM.
Turning to `C=CC(=O)N1C[C@H](C)N(c2nc(=O)n3c4nc(c(F)cc24)-c2c(F)cccc2NC(=O)CCN(C)c2cccc(C(C)C)c2-3)C[C@H]1C` [Example 30, 2^4-((2S,5R)-4-acryloyl-2,5-dimethylpiperazin-1-yl)-2^6,3^6-difluoro-1^6-isopropyl-8-methyl-2^1,2^2-dihydro-4,8-diaza-2(1,7)-pyrido[2,3-d]pyrimidina-1,3(1,2)-dibenzenacyclooctaphane-2^2,5-dione], the IC50 in assay [1] (Homo sapiens, NCI-H358, 96 h) was less than 100 nM; in assay [2] (Homo sapiens, LS-513, 96 h), greater than 10 µM.
